The target in this experiment is T1, human JAK3 kinase domain (Homo sapiens, UniProt P52333).
T1 construct: attached to the N-terminal of the 796-1124 (C-terminal) fragment of the human JAK3 protein; His-tag (N); purchased Carna Biosciences, Inc. (Kobe, Japan); host or cells: baculovirus expression system
Briefly: JAK3 Inhibition Test (Test Example 1). The class given is biochemical. Particulars: purified human JAK3 kinase domain; 20 μM ATP in substrate solution; absorbance at 450 nm; read-out: IC50 (JAK3 inhibitory activity). From the text: (1) Preparation of Human JAK3
Purified human JAK3 kinase domain was purchased from Carna Biosciences, Inc. (Kobe, Japan). This was afforded as described below. His-tag (41 kDa) was attached to the N-terminal of the 796-1124 (C-terminal) fragment of the human JAK3 protein (accession number #NM_000215), expressed using a baculovirus expression system, and then purified using Ni-NTA affinity column chromatography.
(2) Measurement of JAK3 Activity
As substrates, Biotin-Lyn-Substrate-2 (Biotin-XEQED EPEGF YFEWL EPE), X=ε-Acp (Peptide Institute, Inc., Osaka, Japan) and ATP were used. As an assay buffer, 15 mM Tris-HCl, pH 7.5, containing 0.01% Tween 20, and 2 mM DTT (dithiothreitol) was used. Normally, 20 μL of a substrate solution (an assay buffer containing 627 nM Biotin-Lyn-Substrate-2, 20 μM ATP, and 25 mM MgCl2), an assay buffer containing 10 μL of a compound to be tested, and 20 μL of an enzyme solution were added to a microplate, and stirred sufficiently.
After incubation at room temperature for one hour, the plate was washed with a cleaning buffer (50 mM Tris-HCl pH 7.5, 150 mM NaCl, 0.02% Tween 20), and a blocking buffer (a cleaning buffer containing 0.1% Bovine Serum Albumin) was added to the plate. After incubation at room temperature for 30 minutes, the blocking buffer was removed, and an HRP-PY-20 solution (afforded by diluting the HRP-PY-20 solution with the blocking buffer 500 times) was added. After incubation at room temperature for 30 minutes, the plate was washed four times, and a TMB substrate solution (Sigma) was added to the plate. After incubation at room temperature for 4 minutes, 1 M sulfuric acid was added to stop the reaction. Enzyme activity was measured as an absorbance at 450 nm. The JAK3 inhibitory activity of the test compound was calculated assuming that the concentration of the test compound inhibiting JAK3 activity by 50% is an IC50 value.

We go through 30 compounds from patent US20110230467A1, “4,6-DIAMINONICOTINAMIDE COMPOUND” (Astellas Pharma Inc., priority 2008, published 2011).

A word on the IC50: it is the midpoint of a concentration-inhibition curve.

T1 sequence (P52333 796-1124): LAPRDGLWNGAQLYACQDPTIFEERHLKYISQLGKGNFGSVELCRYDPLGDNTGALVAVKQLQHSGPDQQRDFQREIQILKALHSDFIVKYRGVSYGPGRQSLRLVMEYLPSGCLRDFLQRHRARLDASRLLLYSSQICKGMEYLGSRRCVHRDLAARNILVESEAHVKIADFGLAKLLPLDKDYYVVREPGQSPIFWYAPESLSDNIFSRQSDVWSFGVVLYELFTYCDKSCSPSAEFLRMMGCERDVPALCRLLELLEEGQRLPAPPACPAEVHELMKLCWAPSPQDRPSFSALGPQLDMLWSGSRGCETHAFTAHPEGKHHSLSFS

Regarding `N#Cc1ccc(N2CCC(Nc3cc(Nc4ccc(N5CCCC5=O)cn4)ncc3C(N)=O)CC2)nc1` [Example 5-46], the IC50 was 0.86 nM.
The same measure for `CN1CCCN(C(=O)c2ccc(Nc3cc(NCc4c(F)cccc4F)c(C(N)=O)cn3)nc2)CC1` [Example 8-9]: 1.6 nM; for `N#Cc1ccc(N2CCC(Nc3cc(Nc4ccc(N5C(=O)[C@H]6CC[C@@H]5C6)cn4)ncc3C(N)=O)CC2)nc1` [Example 5-67]: 0.9 nM.
The same measure for `CN1C(=O)N(c2ccc(Nc3cc(NCc4c(F)ccc(F)c4F)c(C(N)=O)cn3)nc2)C(=O)C1(C)C` [Example 12-91]: 0.44 nM; for `NC(=O)c1cnc(Nc2ccc(N3C(=O)[C@@H]4CC[C@H]3C4)cn2)cc1NCc1c(F)ccc(F)c1F` [Example 12-78]: 0.69 nM; for `NC(=O)c1cnc(Nc2ccc(N3CCCCC3=O)cn2)cc1NCc1c(F)ccc(F)c1F` [Example 12-54]: 0.69 nM.
The same measure for `NC(=O)c1cnc(Nc2ccc(N3C(=O)[C@H]4CC[C@@H]3C4)cn2)cc1NCc1c(F)ccc(F)c1F` [Example 12-80]: 0.69 nM; for `NC(=O)c1cnc(Nc2ccc(N3CCCCCC3=O)cn2)cc1NCc1c(F)ccc(F)c1F` [Example 12-79]: 0.79 nM.
`COC1CCN(C(=O)c2ccc(Nc3cc(NCc4c(F)cccc4F)c(C(N)=O)cn3)nc2)CC1` [Example 8-7]: the IC50 was 0.8 nM.
Take `NC(=O)c1cnc(Nc2cnccn2)cc1NCc1c(F)ccc(F)c1F` [Example 12-50]: the IC50 was found to be 1 nM.
In the case of `NC(=O)c1cnc(Nc2ccc(N3CCOCC3=O)cn2)cc1NCc1c(F)ccc(F)c1F` [Example 12-76], the IC50 came out at 0.43 nM.
In the case of `N#Cc1ccc(N2CCC(Nc3cc(Nc4ccncn4)ncc3C(N)=O)CC2)nn1` [Example 5-18] it was 1.1 nM; in that of `N#Cc1ccc(N2CC[C@@H](Nc3cc(Nc4cnccn4)ncc3C(N)=O)[C@@H](F)C2)nn1` [Example 5-11], 0.34 nM; in that of `CN1CCN(C(=O)c2ccc(Nc3cc(NCc4c(F)cccc4F)c(C(N)=O)cn3)nc2)CC1` [Example 8-8], 1 nM.
As for `Cc1nccc(Nc2cc(N[C@@H]3CCN(c4ccc(C#N)cn4)C[C@@H]3F)c(C(N)=O)cn2)n1` [Example 5-26], the IC50 worked out at 0.39 nM.
The same measure for `N#Cc1ccc(N2CCC(Nc3cc(Nc4ccncn4)ncc3C(N)=O)CC2)cn1` [Example 5-25]: 0.24 nM.
In the case of `N#Cc1ccc(N2CC[C@@H](Nc3cc(Nc4cnccn4)ncc3C(N)=O)[C@@H](F)C2)nc1` [Example 5-7] it was 0.21 nM; in that of `CN1CCN(c2ccc(Nc3cc(NCc4c(F)ccc(F)c4F)c(C(N)=O)cn3)nc2)C(=O)C1` [Example 12-73], 0.58 nM; in that of `Cc1nccc(Nc2cc(NC3CCN(c4ccc(C#N)cc4)CC3)c(C(N)=O)cn2)n1` [Example 5-8], 0.8 nM.
In the case of `N#Cc1ccc(N2CC[C@@H](Nc3cc(Nc4ccccn4)ncc3C(N)=O)[C@@H](F)C2)nc1` [Example 5-72], the IC50 turned out to be 0.14 nM.
In the case of `CN1CCC(=O)N(c2ccc(Nc3cc(NCc4c(F)cccc4F)c(C(N)=O)cn3)nc2)CC1` [Example 12-97] it was 0.25 nM.
With `CN1CCC(=O)N(c2ccc(Nc3cc(NCc4c(F)ccc(F)c4F)c(C(N)=O)cn3)nc2)CC1` [Example 12-74], the IC50 was 0.74 nM.
For `N#Cc1ccc(N2CC[C@@H](Nc3cc(Nc4ccncn4)ncc3C(N)=O)[C@@H](F)C2)nc1` [Example 5-10], the IC50 stood at 0.29 nM.
On to `NC(=O)c1cnc(Nc2ccc(N3CCOCCC3=O)cn2)cc1NCc1c(F)ccc(F)c1F` [Example 12-81], for which the IC50 came out at 0.56 nM.
For the compound `N#Cc1ccc(N2CC[C@@H](Nc3cc(Nc4ccc(N5CCCCC5=O)cn4)ncc3C(N)=O)[C@@H](F)C2)nc1` [Example 5-55], the IC50 is 0.74 nM.
As for `NC(=O)c1cnc(Nc2ccc(C(=O)N3CCCC3)cn2)cc1NCc1c(F)cccc1F` [Example 8-6], the IC50 is 0.74 nM.
The same measure for `N#Cc1cnc(N2CC[C@@H](Nc3cc(Nc4ccncn4)ncc3C(N)=O)[C@@H](F)C2)cn1` [Example 5-15]: 1 nM; for `Cc1cnc(Nc2cc(NC3CCN(c4ccc(C#N)nn4)CC3)c(C(N)=O)cn2)cn1` [Example 5-22]: 2 nM.
The same measure for `COCc1ccc(Nc2cc(N[C@@H]3CCN(c4ccc(C#N)cn4)C[C@@H]3F)c(C(N)=O)cn2)nc1` [Example 5-73]: 0.24 nM; for `Cc1nccc(Nc2cc(NC3CCN(c4ccc(C#N)cn4)CC3)c(C(N)=O)cn2)n1` [Example 5-9]: 0.36 nM.
